Results published in ChEMBL document CHEMBL1821555, “Identification of a series of 4-[3-(quinolin-2-yl)-1,2,4-oxadiazol-5-yl]piperazinyl ureas as potent smoothened antagonist hedgehog pathway inhibitors” (Bioorg Med Chem Lett, 2011).

Experiments:
Shh Light II = test: Inhibition of Shh signaling in mouse Shh-light2 cells by Gli-dependent firefly luciferase reporter gene assay; assay type: functional, cell-based
Protein smoothened [1] = target: T1, Protein smoothened (Homo sapiens, UniProt Q99835); test: Displacement of Bodipy-labelled cyclopamine from Smo expressed in COS-1 cells in presence of 2% FBS after 4 to 6 hrs by FACS flow cytometric analysis; assay type: cell-based
Protein smoothened [2] = target: T1, Protein smoothened; test: Inhibition of Bodipy-labelled cyclopamine binding to Smo expressed in COS-1 cells in presence of 20% NHS after 4 to 6 hrs by FACS flow cytometric analysis; assay type: cell-based

T1 sequence (Q99835 whole entry): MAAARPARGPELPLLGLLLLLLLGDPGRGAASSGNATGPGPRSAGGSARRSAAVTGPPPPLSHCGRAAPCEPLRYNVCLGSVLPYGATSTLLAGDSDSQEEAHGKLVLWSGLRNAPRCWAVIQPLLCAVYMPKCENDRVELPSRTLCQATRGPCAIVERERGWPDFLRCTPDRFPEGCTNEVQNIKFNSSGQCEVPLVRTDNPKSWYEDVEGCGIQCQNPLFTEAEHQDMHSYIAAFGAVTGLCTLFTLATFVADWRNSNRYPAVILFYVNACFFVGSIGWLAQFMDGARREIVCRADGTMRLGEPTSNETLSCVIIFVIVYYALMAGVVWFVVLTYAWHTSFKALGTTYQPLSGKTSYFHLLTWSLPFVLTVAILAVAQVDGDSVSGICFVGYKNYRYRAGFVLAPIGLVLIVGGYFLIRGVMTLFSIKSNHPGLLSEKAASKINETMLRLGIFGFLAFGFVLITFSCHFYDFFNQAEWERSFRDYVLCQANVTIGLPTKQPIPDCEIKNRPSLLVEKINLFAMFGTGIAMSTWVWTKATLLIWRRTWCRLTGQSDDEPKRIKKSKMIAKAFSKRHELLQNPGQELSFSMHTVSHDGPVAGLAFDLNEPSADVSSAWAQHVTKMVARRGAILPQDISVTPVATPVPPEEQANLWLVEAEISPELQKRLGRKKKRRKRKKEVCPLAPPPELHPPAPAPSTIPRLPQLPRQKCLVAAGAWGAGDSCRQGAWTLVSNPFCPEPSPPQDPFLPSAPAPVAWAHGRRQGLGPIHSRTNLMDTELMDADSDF

Row | SMILES | IC50 (Shh Light II) [nM] | IC50 (Protein smoothened [1]) [nM] | IC50 (Protein smoothened [2]) [nM]
1 | O=C(N1CCC(c2nc(-c3ccc4ccccc4n3)no2)CC1)N1CCCc2ccccc21 | 2300 | 670 | –
2 | O=C(Nc1ccccc1Cl)N1CCC(c2nc(-c3ccc4ccncc4n3)no2)CC1 | – | > 2500 | –
3 | C[C@H]1C[C@H](c2nc(-c3ccc4ccccc4n3)no2)CCN1C(=O)Nc1ccccc1Cl | 900 | 640 | –
4 | c1ccc2nc(-c3noc(C4CCN(CC5CCCCC5)CC4)n3)ccc2c1 | – | > 2500 | –
5 | CC1(c2nc(-c3ccc4ccccc4n3)no2)CCN(C(=O)Nc2ccccc2Cl)CC1 | 2500 | 6000 | –
6 | O=C(OCc1ccccc1)N1CCC(c2nc(-c3ccc4ccccc4n3)no2)CC1 | > 2500 | > 2500 | –
7 | O=C(c1ccccc1Cl)N1CCC(c2nc(-c3ccc4ccccc4n3)no2)CC1 | – | > 2500 | –
8 | O=C(Nc1ccccc1Cl)N1CCC(c2nc(-c3ccc4cnccc4n3)no2)CC1 | – | 2200 | –
9 | N#Cc1ccc(Cl)c(NC(=O)N2CCC(c3nc(-c4ccc5ccccc5n4)no3)CC2)c1 | – | 320 | > 2500
10 | COc1cc2ccccc2nc1-c1noc(C2CCN(C(=O)Nc3ccccc3Cl)CC2)n1 | – | > 2500 | > 2500
11 | COc1ccccc1NC(=O)N1CCC(c2nc(-c3nccc4ccccc34)no2)CC1 | – | > 2500 | –
12 | O=C(Nc1ccccc1)N1CCC(c2nc(-c3ccc4ccccc4n3)no2)CC1 | – | 480 | –
13 | Cc1noc(C)c1NC(=O)N1CCC(c2nc(-c3ccc4ccccc4n3)no2)CC1 | 3000 | 1500 | –
14 | Cc1ccccc1NC(=O)N1CCC(c2nc(-c3ccc4ccccc4n3)no2)CC1 | 440 | 510 | –
15 | O=C(OC1CCCCC1)N1CCC(c2nc(-c3ccc4ccccc4n3)no2)CC1 | 580 | 280 | –
16 | O=C(Nc1ccccc1Cl)N1CCC(c2nc(-c3cccnc3)no2)CC1 | – | > 2500 | –
17 | Cn1c(-c2noc(C3CCN(C(=O)NC4CCS(=O)(=O)CC4)CC3)n2)nc2ccccc21 | 350 | 690 | 760
18 | O=C(NC1CCCC1)N1CCC(c2nc(-c3ccc4ccccc4n3)no2)CC1 | 630 | 420 | –
19 | O=C(Nc1ccccc1Cl)N1CCC(c2nc(-c3ccccn3)no2)CC1 | – | > 2500 | –
20 | COc1ccccc1NC(=O)N1CCC(c2nc(-c3ccc4ccccc4n3)no2)CC1 | 410 | 180 | –
21 | O=C(Nc1ccccc1Cl)N1CCC(c2nc(-c3cnccn3)no2)CC1 | – | > 2500 | –
22 | COc1ccccc1NC(=O)N1CCC(c2nc(-c3cnccn3)no2)CC1 | – | > 2500 | –
23 | COc1ccccc1OC(=O)N1CCC(c2nc(-c3ccc4ccccc4n3)no2)CC1 | 250 | 110 | –
24 | COc1ccccc1NC(=O)N1CCC(c2noc(-c3ccc4ccccc4n3)n2)CC1 | 2400 | 15000 | –

Row | SMILES | IC50 (Shh Light II) [nM] | IC50 (Protein smoothened [1]) [nM] | IC50 (Protein smoothened [2]) [nM]
25 | O=C(Nc1ccccc1Cl)N1CCC(c2nc(-c3ncc4ccccc4n3)no2)CC1 | – | > 2500 | –
26 | O=C(Nc1ncccc1Cl)N1CCC(c2nc(-c3ccc4ccccc4n3)no2)CC1 | 2800 | > 2500 | –
27 | COc1ccccc1NC(=O)N1CCC(c2nc(-c3cc4ccccc4cn3)no2)CC1 | – | 750 | –
28 | CC(=O)N1CCC(NC(=O)N2CCC(c3nc(-c4ccc5ccccc5n4)no3)CC2)CC1 | 500 | 2300 | 1300
29 | COc1ccccc1NC(=O)N1CCC(c2nc(-c3cnc4ccccc4c3)no2)CC1 | – | 1900 | –
30 | COc1ccccc1NC(=O)N1CCC(c2nc(-c3ccncc3)no2)CC1 | – | > 2500 | –
31 | COc1ccc2nc(-c3noc(C4CCN(C(=O)Nc5ccccc5Cl)CC4)n3)ccc2c1 | – | 1800 | –
32 | COc1ccccc1NC(=O)N1CCC(c2nc(-c3ccccc3C)no2)CC1 | – | > 2500 | –
33 | O=C(CC1CCCCCC1)N1CCC(c2nc(-c3ccc4ccccc4n3)no2)CC1 | 840 | 1000 | –
34 | COc1cccc(NC(=O)N2CCC(c3nc(-c4ccc5ccccc5n4)no3)CC2)c1 | 410 | 220 | –
35 | O=C(Nc1ccccc1Cl)N1CCC(F)(c2nc(-c3ccc4ccccc4n3)no2)CC1 | 1300 | 1000 | –
36 | O=C(Nc1cccnc1Cl)N1CCC(c2nc(-c3ccc4ccccc4n3)no2)CC1 | 1600 | 1500 | –
37 | O=C(Nc1ccccc1Cl)N1CCC(c2nc(-c3ccccc3)no2)CC1 | – | > 2500 | –
38 | CCNC(=O)N1CCC(c2nc(-c3ccc4ccccc4n3)no2)CC1 | – | > 2500 | –
39 | CS(=O)(=O)c1ccc(Cl)c(NC(=O)N2CCC(c3nc(-c4ccc5ccccc5n4)no3)CC2)c1 | – | 1200 | > 2500
40 | COc1cc(-c2noc(C3CCN(C(=O)Nc4ccccc4Cl)CC3)n2)nc2ccccc12 | – | > 2500 | > 2500
41 | O=C(Nc1cccc2cccnc12)N1CCC(c2nc(-c3ccc4ccccc4n3)no2)CC1 | 1400 | 1300 | –
42 | O=C(NCC1CCC1)N1CCC(c2nc(-c3ccc4ccccc4n3)no2)CC1 | 410 | 750 | –
43 | COc1ccccc1NC(=O)N1CCC(c2nc(-c3ccccn3)no2)CC1 | – | > 2500 | –
44 | O=C(NC1CC[S+]([O-])CC1)N1CCC(c2nc(-c3ccc4ccccc4n3)no2)CC1 (configuration not stated) | 850 | 1800 | 4800
45 | COc1ccccc1NC(=O)N1CCC(c2nc(-c3ccc4ccccc4c3)no2)CC1 | – | 2200 | –
46 | COc1ccccc1N(C)C(=O)N1CCC(c2nc(-c3ccc4ccccc4n3)no2)CC1 | 3100 | 1400 | –
47 | O=C(NC1CCOCC1)N1CCC(c2nc(-c3ccc4ccccc4n3)no2)CC1 | 480 | 1700 | 8600
48 | CN1CCC(NC(=O)N2CCC(c3nc(-c4ccc5ccccc5n4)no3)CC2)CC1 | 3200 | 3400 | –

Row | SMILES | IC50 (Shh Light II) [nM] | IC50 (Protein smoothened [1]) [nM] | IC50 (Protein smoothened [2]) [nM]
49 | O=C(Nc1cnccc1Cl)N1CCC(c2nc(-c3ccc4ccccc4n3)no2)CC1 | 2000 | 1100 | –
50 | C[C@@H]1C[C@H](c2nc(-c3ccc4ccccc4n3)no2)CCN1C(=O)Nc1ccccc1Cl | 2400 | 620 | –
51 | O=C(NC1CCNCC1)N1CCC(c2nc(-c3ccc4ccccc4n3)no2)CC1 | 2500 | 2900 | 3700
52 | COc1ccccc1NC(=O)N1CCC(c2nc(-c3ccccc3)no2)CC1 | – | > 2500 | –
53 | Cn1c(-c2noc(N3CCN(C(=O)NC4CCC(F)(F)CC4)CC3)n2)nc2ccccc21 | – | 7 | 25
54 | O=C(Nc1ccccc1C(F)(F)F)N1CCC(c2nc(-c3ccc4ccccc4n3)no2)CC1 | 700 | 340 | –
55 | O=C(Nc1ccccc1Cl)N1CCC(c2nc(-c3nccc4ccccc34)no2)CC1 | – | > 2500 | –
56 | N#Cc1ccc(NC(=O)N2CCC(c3nc(-c4ccc5ccccc5n4)no3)CC2)c(Cl)c1 | – | 1900 | –
57 | COc1ccccc1NC(=O)N1CCC(c2nc(-c3cccnc3)no2)CC1 | – | > 2500 | –
58 | CC(C)c1ccccc1NC(=O)N1CCC(c2nc(-c3ccc4ccccc4n3)no2)CC1 | 480 | 350 | –
59 | N#Cc1ccccc1NC(=O)N1CCC(c2nc(-c3ccc4ccccc4n3)no2)CC1 | 190 | 490 | –
60 | Clc1ccccc1CN1CCC(c2nc(-c3ccc4ccccc4n3)no2)CC1 | – | > 2500 | –
61 | COc1ccc2ccc(-c3noc(C4CCN(C(=O)Nc5ccccc5Cl)CC4)n3)nc2c1 | – | > 2500 | > 2500
62 | COc1cccc2ccc(-c3noc(C4CCN(C(=O)Nc5ccccc5Cl)CC4)n3)nc12 | – | > 2500 | –
63 | CC1CN(C(=O)Nc2ccccc2Cl)CCC1c1nc(-c2ccc3ccccc3n2)no1 (mixture of isomers) | 680 | 790 | –
64 | O=C(Nc1ccccc1Cl)N1CCC(c2nc(-c3cnc4ccccc4n3)no2)CC1 | – | 1100 | –
65 | O=C(Nc1ccccc1Cl)N1CCC(c2nc(-c3ncccn3)no2)CC1 | – | > 2500 | –
66 | O=C(Nc1ccccc1Cl)N1CCC(c2nc(-c3ccc4ncccc4n3)no2)CC1 | – | > 2500 | –
67 | O=C(Nc1ccccc1Cl)N1CCC(c2nc(-c3cnc4ccccc4c3)no2)CC1 | – | > 2500 | –
68 | O=C(Nc1ccc(Cl)cc1)N1CCC(c2nc(-c3ccc4ccccc4n3)no2)CC1 | – | 470 | –
69 | O=C(Nc1ccccc1Cl)N1CCC(O)(c2nc(-c3ccc4ccccc4n3)no2)CC1 | 1300 | 2100 | –
70 | COc1ccccc1NC(=O)N1CCC(c2nc(-c3ncccn3)no2)CC1 | – | > 2500 | –
71 | COc1cccc2nc(-c3noc(C4CCN(C(=O)Nc5ccccc5Cl)CC4)n3)ccc12 | – | > 2500 | > 2500
72 | O=C(NC1CCC(F)(F)CC1)N1CCC(c2nc(-c3ccc4ccccc4n3)no2)CC1 | – | 480 | 1500
